Activity calls are given as the source filed them.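 Rule for the calls: active = AC50 no more than ten times the top concentration tested, that is within one log above it; inconclusive = flat curve fit with activity between 30% and 70%, or invalid poor fit; inactive = AC50 beyond ten times the top tested dose.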
These compounds were tested on S. cerevisiae Mot1-301 ts growth rescue, BacTiter-Glo ATP luminescence (assay: growth rescue of Mot1-301 ts yeast, confirmation, SUMOylation pathway inhibitor project, whole organism, S. cerevisiae, Mot1-301 ts mutant, luminescence, dose retest (AID 463204);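 note: growth at restrictive 38.5 degrees C of Mot1-301 OY566 strain; actives raise luminescence by restoring growth of the ts mutant at high temperature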).

Structure (SMILES)	AC50
COc1cc(-c2nnc(SCC#CCO)o2)cc(OC)c1OC	> 42 µM (inactive)
CCc1ccc(NC(=S)N(Cc2cccc(Br)c2)CC2CCC(C(=O)O)CC2)cc1 (configuration not stated)	> 42 µM (inactive)
N#CCN(N=Nc1ccccc1)c1ccccc1	> 42 µM (inactive)
Cc1cc(C)c[n+](-c2nc3ccccc3nc2[N-]S(=O)(=O)c2ccc(Br)s2)c1	> 42 µM (inactive)
COc1ccc(NC(=S)NC(=O)C2CCC2)cc1	> 42 µM (inactive)
CCOc1ccc(-c2nc(C#N)c(N3CCOCC3)o2)cc1	> 42 µM (inactive)
COc1ccc(C(=O)CSc2nnc(CNC(=O)c3ccccc3)n2C)cc1	> 42 µM (inactive)
O=C1c2ccccc2C(=O)N1CCCCSc1nc2ccccc2c(=O)n1CCCN1CCOCC1	> 42 µM (inactive)
Cc1csc(=O)n1CC(=O)OCC(=O)Nc1cc([N+](=O)[O-])ccc1Cl	> 42 µM (inactive)
Cc1ccc(-n2nnnc2SCC#N)cc1	> 42 µM (inactive)
CCCCOC(=O)/C(=C/C=C/c1ccccc1)NC(=O)c1ccccc1	> 42 µM (inactive)
CCN(CC(=O)N1CCCCCC1)S(=O)(=O)c1ccc(Cl)cc1	> 42 µM (inactive)
Cc1ccc(-c2nc(CS(=O)(=O)CC(=O)NC3CCCCC3C)c(C)o2)cc1 (configuration not stated)	> 42 µM (inactive)
COc1ccc(/C=C(\C#N)C(=O)c2cccn2C)cc1	> 42 µM (inactive)
COc1ccc(C)cc1NC(=O)Cn1c(=O)oc2ccccc21	> 42 µM (inactive)
CCc1nnc(NC(=O)CSc2ccc(-c3ccc(-n4cccn4)cc3)nn2)s1	> 42 µM (inactive)
CC1=CC2=NC(=O)/C(=C\c3cc(C)n(-c4ccccc4)c3C)C(=N)N2O1	> 42 µM (inactive)
CN(C)S(=O)(=O)c1cc(NC(=O)CSc2nn(-c3ccc(Cl)cc3)c(=S)s2)ccc1Cl	31.1 µM
NNC(=O)c1oc2nc(-c3ccccc3)cc(-c3ccccc3)c2c1N	> 42 µM (inactive)
O=C(COC(=O)CNC(=O)c1ccc(Cl)cc1)Nc1ncc(C(F)(F)F)cc1Cl	> 42 µM (inactive)
CC(=O)Nc1ccc(/C(C)=N/NC(=O)c2ccncc2)cc1	> 42 µM (inactive)
Cc1ccc2c(c1)C(O)(CC(=O)c1cccnc1)C(=O)N2 (configuration not stated)	> 42 µM (inactive)
O=c1c2ccccc2nc(SCc2ccc([N+](=O)[O-])cc2)n1CCCO	> 42 µM (inactive)
CCOC(=O)C1=C(C)Nc2ncnn2C1/C=C/c1ccccc1 (configuration not stated)	> 42 µM (inactive)
Cc1nc2ccccc2c(=O)n1CC(=O)N1CCOCC1	> 42 µM (inactive)
CCOc1ccc(Br)cc1S(=O)(=O)N1CCC(C(N)=O)CC1	> 42 µM (inactive)

Structure (SMILES)	AC50
CSc1ccccc1-n1nnnc1SCC(=O)Nc1ccccc1C	> 42 µM (inactive)
CC1(C)CC(=O)C2=C(C1)Oc1ncn(CCO)c(=N)c1C2c1ccccc1 (configuration not stated)	> 42 µM (inactive)
CCc1cc2c(=O)c(-c3ccc(F)cc3)c(C(F)(F)F)oc2cc1OCC(=O)O	> 42 µM (inactive)
CC(C)C(=O)Nc1ccc(NC(=S)NC(=O)c2ccccc2F)cc1	> 42 µM (inactive)
Cc1cc(C)cc(N2C(=O)CC(Sc3ncn[nH]3)C2=O)c1 (configuration not stated)	1.92 µM
O=C(CP(=O)(c1ccccc1)c1ccccc1)N1CCOCC1	> 42 µM (inactive)
CCCC(=O)Nc1ccc(Sc2ccc([N+](=O)[O-])cc2)cc1	30.9 µM
COc1ccc(Cl)cc1C(=O)NCCc1ccc(S(=O)(=O)NC(=O)NC2CCCCC2)cc1	> 42 µM (inactive)
CN1C(=O)C(=Cc2ccc(N3CCCCC3)o2)C(=O)N(C)C1=S	> 42 µM (inactive)
Cc1[nH]oc(=O)c1N=Nc1ccccc1	30.6 µM
COc1cccc(OC)c1C(=O)Nc1ccc2c(c1)N(S(=O)(=O)c1cccs1)CCC2	> 42 µM (inactive)
c1ccc2nc3c(nc2c1)OCC1CCCCN31 (configuration not stated)	> 42 µM (inactive)
COc1cc(C(=O)NCCC2=CCCCC2)cc(OC)c1OC	> 42 µM (inactive)
Cc1onc(-c2ccccc2Cl)c1C(=O)N1CCc2ccccc2C1	34 µM
Cc1ccccc1C(=O)NN(C)c1nc2ccccc2nc1C(F)(F)F	> 42 µM (inactive)
CN(C)S(=O)(=O)c1cccc(NC(=O)C(c2ccccc2)c2ccccc2)c1	> 42 µM (inactive)
COc1cccc(C2C(C(C)=O)=C(O)C(=O)N2CCc2c[nH]c3ccccc23)c1 (configuration not stated)	> 42 µM (inactive)
CCN(CC)CC(=O)Nc1ccc(Oc2ccc(NC(=O)CN(CC)CC)cc2)cc1	> 42 µM (inactive)
Cc1ccc(C(C(=O)NCC2CCCO2)N(Cc2ccccc2F)C(=O)Cn2nnc(-c3cccs3)n2)cc1 (configuration not stated)	> 42 µM (inactive)
O=C1c2ccccc2S(=O)(=O)N1Cc1cc(=O)n2ccsc2n1	> 42 µM (inactive)
CCC(=O)N(Cc1ccc2c(c1)OCO2)Cc1cc2cc(OC)ccc2[nH]c1=O	> 42 µM (inactive)
Cc1occc1-c1nnc(SCC(=O)N2CCN(c3ccccc3)CC2)n1C	> 42 µM (inactive)
COc1ccc(C(=O)CC(=O)C(=O)Nc2ccc(C)c(Cl)c2)cc1	> 42 µM (inactive)
C[C@@]12C(=O)Nc3cc(Cl)ccc3C(=O)N1[C@H]1c3ccccc3OC[C@@H]1[C@@H]2c1ccccc1	1.98 µM
CC1CN=C(NCc2ccccc2)S1 (configuration not stated)	> 42 µM (inactive)
C=CC(=O)NC1CC2CCC1(C)C2(C)C (configuration not stated)	> 42 µM (inactive)

Structure (SMILES)	AC50
Cc1ccc(C(=O)NNc2ncnc3c2cnn3C)cc1	> 42 µM (inactive)
O=[N+]([O-])c1cncc([N+](=O)[O-])c1Nc1ccccc1Cl	9.62 µM
O=C(O)CCc1ccc(-c2cccs2)n1NC(=O)c1cccs1	> 42 µM (inactive)
O=S(=O)(Cc1ccccc1)N1CCN(c2ncccn2)CC1	> 42 µM (inactive)
O=C(OCc1ccccc1)c1cccc(-c2nnn(Cc3ccccc3)n2)c1	> 42 µM (inactive)
CC(C)(C)CC(=O)Nc1cc(S(=O)(=O)N2CCOCC2)ccc1N1CCCC1	> 42 µM (inactive)
CCOc1ccc(CCNC(=O)COC(=O)c2cccc(OC)c2O)cc1OCC	> 42 µM (inactive)
COc1ccc(-c2nc(C#N)c(NC(C)c3ccccc3)o2)cc1OC (configuration not stated)	> 42 µM (inactive)
Oc1cccc(/C=N/N2CCN(c3ccccn3)CC2)c1	> 21 µM (inactive)
O=C1C2CC=C(Cl)CC2C(=O)N1c1ncn[nH]1 (configuration not stated)	> 42 µM (inactive)
CCCCC(=O)Nc1cc(OC)c(NC(=O)C2CCCCC2)cc1OC	> 42 µM (inactive)
CCN(C(=S)NCCOC)c1cccc2ccccc12	> 42 µM (inactive)
COc1ccc(C(=O)N/C(=C\c2cn(C)c3ccccc23)C(=O)OCCN(C)C)cc1	> 42 µM (inactive)
OC(COCc1cccs1)CN1CCCCCC1 (configuration not stated)	> 42 µM (inactive)
O=C(c1cc(N2C(=O)C3C4CCC(C4)C3C2=O)ccc1Cl)N1CCCCCC1 (configuration not stated)	> 42 µM (inactive)
CN(C)/C=N/NC(=O)c1ccccc1	> 42 µM (inactive)
CC(=O)Nc1ccc(-c2csc(NC(=O)C3CC(=O)N(c4ccc5c(c4)OCCO5)C3)n2)cc1 (configuration not stated)	> 42 µM (inactive)
O=C(CCCn1cnc([N+](=O)[O-])n1)Nc1cccc2ccccc12	> 42 µM (inactive)
Cc1ccc(NC(=O)Nc2cccc(C(F)(F)F)c2)nc1	> 42 µM (inactive)
O=C1CSC(c2ccc(F)c(F)c2)N1c1ccccc1F (configuration not stated)	> 42 µM (inactive)
O=C(O)CN(c1ccccn1)S(=O)(=O)c1ccc(Cl)cc1	> 42 µM (inactive)
CC1=CC(=O)C(C(C)C)=C/C1=N/OS(=O)(=O)c1ccccc1	0.92 µM
Cc1cccc(N2CCN(C(=O)CN3C(=O)NC(C)(C)C3=O)CC2)c1C	> 42 µM (inactive)
CCN(C(=O)COC(=O)c1c(-c2ccccc2)noc1C)c1c(N)n(Cc2ccccc2)c(=O)[nH]c1=O	> 42 µM (inactive)
CC(=O)N1N=C(N)SC12CCCC2	> 42 µM (inactive)
C=CCN(C(=O)CNC(=O)c1ccco1)C(C(=O)NC1CCCCC1)c1ccccc1 (configuration not stated)	> 42 µM (inactive)

Structure (SMILES)	AC50
Cn1nc(C(C)(C)C)c([N+](=O)[O-])c1C(=O)Nc1ccccc1	> 42 µM (inactive)
CCCNC(=O)COC(=O)CCC(=O)c1cccs1	> 42 µM (inactive)
OC[C@@H](O)CCl	> 42 µM (inactive)
CCOC(=O)C1=Nc2ccccc2C1=[N+]=[N-]	36.7 µM
CCS(=O)c1ccccc1C(=O)O (configuration not stated)	> 42 µM (inactive)
Oc1c(Cl)cc(Cl)cc1/C=N/c1nc(-c2ccc(Cl)cc2)cs1	34.1 µM
Cc1cccc(C)c1NC(=O)C1(N(Cc2ccco2)C(=O)CC2NC(=O)NC2=O)CCCCC1 (configuration not stated)	> 42 µM (inactive)
COc1cccc(/C=N/NC(=O)CCn2cnc3ccccc32)c1	> 42 µM (inactive)
Cc1c(Cl)c([N+](=O)[O-])nn1CC(=O)NC12CC3CC(CC(C3)C1)C2	> 42 µM (inactive)
CCN1C(=NCc2cccc(Cl)c2)N[C@@H](c2cccc(F)c2)C(C(=O)OC)=C1C	> 42 µM (inactive)
Oc1ccc(C2=CSC3=NCCN23)cc1O	> 42 µM (inactive)
CC1(OC(=O)C2CCCC2)C(=O)C=C2C=C(c3ccsc3)OC=C2C1=O (configuration not stated)	> 42 µM (inactive)
CCOC(=O)CS(=O)(=O)c1ccc2ccccc2c1	> 42 µM (inactive)
O=C(Nc1ccc2c(c1)CCCN2C(=O)c1cccs1)c1cccc(F)c1	> 42 µM (inactive)
COc1ccc(CN(CC(=O)NCc2ccco2)C(=O)CCC(=O)Nc2nccs2)cc1	> 42 µM (inactive)
Cc1nn(-c2ccccc2)c(N)c1N=Nc1cccc(S(=O)(=O)N2CCOCC2)c1	> 42 µM (inactive)
CC(C)C(NC(=O)c1ccccc1)C(=O)NCC(c1ccccc1)N(C)C (configuration not stated)	> 42 µM (inactive)
O=S(=O)(c1ccc(C2CCCCC2)cc1)N1CCCC1	> 42 µM (inactive)
O=C(CSc1nnc(CNC(=O)c2ccco2)o1)Nc1nc2ccccc2s1	> 42 µM (inactive)
COc1ccc(CN2CC(=O)N(c3ccccc3C)C2=S)cc1OC	> 42 µM (inactive)
COc1ccc(Nc2oc(-c3cccs3)nc2C#N)cc1	> 42 µM (inactive)
Cc1nc2ccc(S(=O)(=O)NC(CC(C)C)C(=O)O)cc2s1 (configuration not stated)	> 42 µM (inactive)
COCCn1c(SCc2ccc(Cl)cc2)nc2c1c(=O)[nH]c(=O)n2C	> 42 µM (inactive)
CCn1c(SCC(=O)N/N=C/c2ccccc2OCC(=O)O)nnc1-c1ccc(C(C)(C)C)cc1	32.7 µM
